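Grown in 96-well plates, cells were treated for 48 hours with each compound at five concentrations. Insufficient inhibition: endpoint recorded as highest concentration tested. GI50 = concentration required for 50% inhibition of growth.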 Calls of active or inactive are those of the source. No stated cut-off is given here; in the data, active = GI50 up to about 1.1 µM and inactive = higher.
How the values were obtained:
Assay in all cases: growth of human tumour cells (NCI), 48 h
[1] = system: 786-0
[2] = system: A498
[3] = system: A549
[4] = system: BT-549
[5] = system: CAKI-1
[6] = system: COLO 205
[7] = system: DU-145
[8] = system: EKVX
[9] = system: HCC 2998
[10] = system: HCT-116
[11] = system: HCT-15
[12] = system: HL-60
[13] = system: HOP-92
[14] = system: HT-29
[15] = system: Hs-578T
[16] = system: IGROV-1
[17] = system: K562
[18] = system: KM12
[19] = system: LOX IMVI
[20] = system: M14
[21] = system: MCF7
[22] = system: MDA-MB-231
[23] = system: MDA-MB-435
[24] = system: MDA-N
[25] = system: MOLT-4
[26] = system: Malme-3M
[27] = system: NCI-H226
[28] = system: NCI-H23
[29] = system: NCI-H460
[30] = system: NCI-H522
[31] = system: NCI/ADR-RES
[32] = system: OVCAR-3
[33] = system: OVCAR-4
[34] = system: OVCAR-5
[35] = system: OVCAR-8
[36] = system: PC-3
[37] = system: RPMI-8226
[38] = system: RXF 393
[39] = system: SF-268
[40] = system: SF-539
[41] = system: SK-MEL-28
[42] = system: SK-MEL-2
[43] = system: SK-MEL-5
[44] = system: SK-OV-3
[45] = system: SN12C
[46] = system: SNB-19
[47] = system: SNB-75
[48] = system: SR
[49] = system: SW-620
[50] = system: T47D
[51] = system: TK-10
[52] = system: U-251
[53] = system: UACC-257
[54] = system: UACC-62
[55] = system: UO-31
[56] = system: ACHN
[57] = system: CCRF-CEM
[58] = system: HOP-62
[59] = system: SF-295

## N#Cc1c(O)n(-c2ccccc2)c(=O)c2c(N)n[nH]c12
[1]
  GI50: > 100 µM (inactive)
[2]
  GI50: > 100 µM (inactive)
[3]
  GI50: > 100 µM (inactive)
[4]
  GI50: > 100 µM (inactive)
[5]
  GI50: 95.1 µM (inactive)
[6]
  GI50: > 100 µM (inactive)
[7]
  GI50: > 100 µM (inactive)
[8]
  GI50: > 100 µM (inactive)
[9]
  GI50: > 100 µM (inactive)
[10]
  GI50: > 100 µM (inactive)
[11]
  GI50: > 100 µM
[12]
  GI50: > 100 µM (inactive)
[13]
  GI50: > 100 µM (inactive)
[14]
  GI50: > 100 µM (inactive)
[15]
  GI50: > 100 µM (inactive)
[16]
  GI50: > 100 µM (inactive)
[17]
  GI50: 56.4 µM (inactive)
[18]
  GI50: 42.4 µM (inactive)
[19]
  GI50: 21.5 µM (inactive)
[20]
  GI50: > 100 µM (inactive)
[21]
  GI50: > 100 µM (inactive)
[22]
  GI50: > 100 µM (inactive)
[23]
  GI50: > 100 µM (inactive)
[24]
  GI50: > 100 µM (inactive)
[25]
  GI50: > 100 µM (inactive)
[26]
  GI50: > 100 µM (inactive)
[27]
  GI50: > 100 µM (inactive)
[28]
  GI50: > 100 µM (inactive)
[29]
  GI50: > 100 µM (inactive)
[30]
  GI50: 69.8 µM (inactive)
[31]
  GI50: > 100 µM (inactive)
[32]
  GI50: > 100 µM (inactive)
[33]
  GI50: > 100 µM (inactive)
[34]
  GI50: > 100 µM (inactive)
[35]
  GI50: > 100 µM (inactive)
[36]
  GI50: > 100 µM (inactive)
[37]
  GI50: > 100 µM (inactive)
[38]
  GI50: > 100 µM (inactive)
[39]
  GI50: > 100 µM (inactive)
[40]
  GI50: > 100 µM (inactive)
[41]
  GI50: > 100 µM (inactive)
[42]
  GI50: > 100 µM (inactive)
[43]
  GI50: > 100 µM (inactive)
[44]
  GI50: > 100 µM (inactive)
[45]
  GI50: > 100 µM (inactive)
[46]
  GI50: > 100 µM (inactive)
[47]
  GI50: > 100 µM (inactive)
[48]
  GI50: > 100 µM (inactive)
[49]
  GI50: 64.9 µM (inactive)
[50]
  GI50: > 100 µM (inactive)
[51]
  GI50: > 100 µM (inactive)
[52]
  GI50: > 100 µM (inactive)
[53]
  GI50: > 100 µM (inactive)
[54]
  GI50: 31.3 µM (inactive)
[55]
  GI50: > 100 µM (inactive)

## OC(C/C(=N\N=C(/CC(O)(C(F)(F)F)C(F)(F)F)c1ccccc1)c1ccccc1)(C(F)(F)F)C(F)(F)F
[1]
  GI50: > 10 µM (inactive)
[2]
  GI50: > 10 µM (inactive)
[3]
  GI50: > 10 µM (inactive)
[56]
  GI50: > 10 µM (inactive)
[4]
  GI50: > 10 µM (inactive)
[5]
  GI50: > 10 µM (inactive)
[57]
  GI50: > 10 µM (inactive)
[6]
  GI50: > 10 µM (inactive)
[7]
  GI50: > 10 µM (inactive)
[8]
  GI50: > 10 µM (inactive)
[9]
  GI50: > 10 µM (inactive)
[10]
  GI50: > 10 µM (inactive)
[11]
  GI50: > 10 µM
[12]
  GI50: > 10 µM (inactive)
[58]
  GI50: > 10 µM (inactive)
[13]
  GI50: > 10 µM (inactive)
[14]
  GI50: > 10 µM (inactive)
[15]
  GI50: > 10 µM (inactive)
[16]
  GI50: > 10 µM (inactive)
[17]
  GI50: > 10 µM (inactive)
[18]
  GI50: > 10 µM (inactive)
[19]
  GI50: > 10 µM (inactive)
[20]
  GI50: > 10 µM (inactive)
[21]
  GI50: > 10 µM (inactive)
[22]
  GI50: > 10 µM (inactive)
[23]
  GI50: > 10 µM (inactive)
[24]
  GI50: > 10 µM (inactive)
[25]
  GI50: > 10 µM (inactive)
[26]
  GI50: > 10 µM (inactive)
[27]
  GI50: > 10 µM (inactive)
[28]
  GI50: > 10 µM (inactive)
[29]
  GI50: > 10 µM (inactive)
[30]
  GI50: > 10 µM (inactive)
[31]
  GI50: > 10 µM (inactive)
[32]
  GI50: > 10 µM (inactive)
[33]
  GI50: > 10 µM (inactive)
[34]
  GI50: > 10 µM (inactive)
[35]
  GI50: > 10 µM (inactive)
[36]
  GI50: > 10 µM (inactive)
[37]
  GI50: > 10 µM (inactive)
[38]
  GI50: 3.17 µM (inactive)
[39]
  GI50: > 10 µM (inactive)
[59]
  GI50: 6.44 µM (inactive)
[40]
  GI50: > 10 µM (inactive)
[41]
  GI50: > 10 µM (inactive)
[42]
  GI50: > 10 µM (inactive)
[43]
  GI50: > 10 µM (inactive)
[44]
  GI50: > 10 µM (inactive)
[45]
  GI50: > 10 µM (inactive)
[46]
  GI50: > 10 µM (inactive)
[47]
  GI50: > 10 µM (inactive)
[48]
  GI50: > 10 µM (inactive)
[49]
  GI50: > 10 µM (inactive)
[50]
  GI50: > 10 µM (inactive)
[51]
  GI50: > 10 µM (inactive)
[52]
  GI50: > 10 µM (inactive)
[53]
  GI50: > 10 µM (inactive)
[54]
  GI50: > 10 µM (inactive)

## O=C1CC(C(O)(C(F)(F)F)C(F)(F)Cl)CCC1C(O)(C(F)(F)F)C(F)(F)Cl (stereo unspecified)
[1]
  GI50: > 10 µM (inactive)
[2]
  GI50: 6.58 µM (inactive)
[3]
  GI50: > 10 µM (inactive)
[56]
  GI50: > 10 µM (inactive)
[4]
  GI50: > 10 µM (inactive)
[5]
  GI50: > 10 µM (inactive)
[57]
  GI50: > 10 µM (inactive)
[6]
  GI50: 4.6 µM (inactive)
[7]
  GI50: > 10 µM (inactive)
[8]
  GI50: > 10 µM (inactive)
[9]
  GI50: > 10 µM (inactive)
[10]
  GI50: 7.19 µM (inactive)
[11]
  GI50: > 10 µM
[12]
  GI50: > 10 µM (inactive)
[58]
  GI50: > 10 µM (inactive)
[13]
  GI50: 1.26 µM (inactive)
[14]
  GI50: 5.78 µM (inactive)
[15]
  GI50: > 10 µM (inactive)
[16]
  GI50: > 10 µM (inactive)
[17]
  GI50: > 10 µM (inactive)
[18]
  GI50: > 10 µM (inactive)
[19]
  GI50: > 10 µM (inactive)
[20]
  GI50: > 10 µM (inactive)
[21]
  GI50: 8.71 µM (inactive)
[22]
  GI50: > 10 µM (inactive)
[23]
  GI50: > 10 µM (inactive)
[24]
  GI50: > 10 µM (inactive)
[25]
  GI50: > 10 µM (inactive)
[26]
  GI50: > 10 µM (inactive)
[27]
  GI50: > 10 µM (inactive)
[28]
  GI50: 9.55 µM (inactive)
[29]
  GI50: > 10 µM (inactive)
[30]
  GI50: 8.77 µM (inactive)
[31]
  GI50: > 10 µM (inactive)
[32]
  GI50: > 10 µM (inactive)
[33]
  GI50: > 10 µM (inactive)
[34]
  GI50: > 10 µM (inactive)
[35]
  GI50: > 10 µM (inactive)
[36]
  GI50: 2.68 µM (inactive)
[37]
  GI50: > 10 µM (inactive)
[38]
  GI50: 3.49 µM (inactive)
[39]
  GI50: > 10 µM (inactive)
[59]
  GI50: 7.5 µM (inactive)
[40]
  GI50: 7.18 µM (inactive)
[41]
  GI50: > 10 µM (inactive)
[42]
  GI50: 3.25 µM (inactive)
[43]
  GI50: > 10 µM (inactive)
[44]
  GI50: > 10 µM (inactive)
[45]
  GI50: > 10 µM (inactive)
[46]
  GI50: > 10 µM (inactive)
[47]
  GI50: 8.71 µM (inactive)
[48]
  GI50: > 10 µM (inactive)
[49]
  GI50: > 10 µM (inactive)
[50]
  GI50: > 10 µM (inactive)
[51]
  GI50: > 10 µM (inactive)
[52]
  GI50: > 10 µM (inactive)
[53]
  GI50: 4.18 µM (inactive)
[54]
  GI50: 7.55 µM (inactive)

Source: ChEMBL document CHEMBL1201862, “PubChem BioAssay data set” (2004)
